The source of these data is patent US7713994B2 (Wyeth LLC, priority 2005, dated 2010).

SMILES strings stand for the structures.

One data set relates to LoVo. Put plainly: Cytotoxicity assay (SRB), LoVo. Particulars: Homo sapiens, LoVo, 72 h, LoVo cells, SRB, three days; read-out: In Vitro Cellular Activity IC50 LOVO. Type of data set: cell-based. In outline:
(§1)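 Plate cells, let them attach overnight, add compound dilutions in RPMI 1640/5% FBS, and incubate 3 days (BT474 6 days). Then fix with TCA, stain with SRB, dissolve the dye in Tris and read at 540 nm.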

Another data set concerns HCT-116. The data set can be described thus: Cytotoxicity assay (SRB), HCT-116. Particulars: Homo sapiens, HCT-116, 72 h, HCT116 cells, SRB, three days; read-out: In Vitro Cellular Activity IC50 HCT116. In kind it is cell-based. In outline: as §1
A further data set has as its system MCF-7. Put plainly: Cytotoxicity assay (SRB), MCF-7. Type of data set: cell-based. Particulars: Homo sapiens, MCF7, 72 h, MCF-7 cells, SRB, three days; read-out: In Vitro Cellular Activity IC50 MCF-7. The method in brief: as §1
For the next data set, the target named is T1, cyclin B/CDK1 enzyme (Homo sapiens, UniProt P06493).
T1 construct: purchased New England BioLabs; host or cells: Sf9 insect cells, recombinant baculovirus
T1 sequence (P06493 whole entry): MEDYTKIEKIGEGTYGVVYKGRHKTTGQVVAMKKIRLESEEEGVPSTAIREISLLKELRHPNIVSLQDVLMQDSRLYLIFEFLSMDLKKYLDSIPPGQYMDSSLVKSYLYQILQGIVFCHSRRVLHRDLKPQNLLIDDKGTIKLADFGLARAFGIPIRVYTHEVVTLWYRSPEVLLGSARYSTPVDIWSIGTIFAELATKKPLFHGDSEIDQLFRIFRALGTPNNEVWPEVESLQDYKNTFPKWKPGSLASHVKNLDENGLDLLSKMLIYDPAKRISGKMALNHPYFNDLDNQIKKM
T1 sequence (P14635 whole entry partner): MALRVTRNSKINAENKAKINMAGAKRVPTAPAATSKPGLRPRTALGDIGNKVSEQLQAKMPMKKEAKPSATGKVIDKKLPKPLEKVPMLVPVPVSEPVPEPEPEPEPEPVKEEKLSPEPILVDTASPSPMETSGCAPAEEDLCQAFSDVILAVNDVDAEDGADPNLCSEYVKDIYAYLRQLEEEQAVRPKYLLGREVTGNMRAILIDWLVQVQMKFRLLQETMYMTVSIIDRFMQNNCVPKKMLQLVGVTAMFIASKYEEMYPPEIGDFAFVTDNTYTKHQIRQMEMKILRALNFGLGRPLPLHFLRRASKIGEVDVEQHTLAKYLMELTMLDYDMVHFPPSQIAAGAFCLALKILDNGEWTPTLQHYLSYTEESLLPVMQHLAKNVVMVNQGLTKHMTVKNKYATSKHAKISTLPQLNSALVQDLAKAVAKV
Put plainly: CDK1 ELISA kinase assay (phospho-Rb ser 795 detection). Type of data set: biochemical. Particulars: In Vitro Enzyme Assays, read-out: CDK1 IC50. The method in brief:
(§2)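 Screening was done at 10 ug/ml compound. Each partially purified cyclin/CDK complex, produced in baculovirus-infected Sf9 cells, phosphorylated a coated GST-Rb C-terminal fragment with 200 μM ATP, and Ser795 phosphorylation was quantified by HRP-ELISA at 450 nm.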

The target in a further data set is T2, cyclin E/CDK2 enzyme (Homo sapiens, UniProt P24941).
T2 construct: made in house; host or cells: Sf9 insect cells, recombinant baculovirus
Put plainly: CDK2 ELISA kinase assay (phospho-Rb ser 795 detection). In kind it is biochemical. Particulars: In Vitro Enzyme Assays, read-out: CDK2 IC50. In outline:
as §2
(In an ELISA, binding on a coated surface is turned into a signal by an enzyme label.)

The test system of a further data set is BT474. The data set can be described thus: Cytotoxicity assay (SRB), BT474. To be noted: Homo sapiens, BT-474, 144 h, BT474 cells, SRB, 6 days; read-out: In Vitro Cellular Activity IC50 BT474. In kind it is cell-based. The method in brief: as §1
The target in another data set is T3, cyclin D1/cdk 4 enzyme (Homo sapiens, UniProt P11802).
T3 construct: made in house; host or cells: Sf9 insect cells, recombinant baculovirus
T3 sequence (P11802 whole entry, species assumed): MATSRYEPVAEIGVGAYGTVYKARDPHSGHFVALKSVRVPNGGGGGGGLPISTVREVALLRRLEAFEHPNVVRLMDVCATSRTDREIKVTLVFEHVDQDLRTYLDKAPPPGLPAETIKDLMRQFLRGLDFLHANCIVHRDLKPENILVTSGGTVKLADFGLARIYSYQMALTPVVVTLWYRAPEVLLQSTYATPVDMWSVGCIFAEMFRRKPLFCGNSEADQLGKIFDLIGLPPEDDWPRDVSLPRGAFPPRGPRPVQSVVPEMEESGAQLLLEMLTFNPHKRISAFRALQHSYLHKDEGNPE
T3 sequence (P24385 whole entry partner, species assumed): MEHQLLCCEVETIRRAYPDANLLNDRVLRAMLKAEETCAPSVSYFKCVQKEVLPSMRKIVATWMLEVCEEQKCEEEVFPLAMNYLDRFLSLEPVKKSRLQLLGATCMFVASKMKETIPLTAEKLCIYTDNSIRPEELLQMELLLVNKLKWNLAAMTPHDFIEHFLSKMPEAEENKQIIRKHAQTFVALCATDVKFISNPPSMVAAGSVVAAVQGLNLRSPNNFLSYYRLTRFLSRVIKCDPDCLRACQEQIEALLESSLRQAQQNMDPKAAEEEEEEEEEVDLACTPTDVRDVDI
The data set can be described thus: CDK4 ELISA kinase assay (phospho-Rb ser 795 detection). Type of data set: biochemical. To be noted: In Vitro Enzyme Assays, 200 μM ATP, read-out: CDK4 IC50. The method in brief: as §2

A further data set relates to SK-UT-1B. The data set can be described thus: In Vitro Cellular Activity (Table III), SK-UT-1B. To be noted: Homo sapiens, Skut1B; SK-UT-1B cells. Type of data set: cell-based.

In general, IC50 refers to the point on the concentration scale where inhibition reaches its midpoint. What is called melting point is the temperature of the solid-liquid transition. On to `COCC1CCCN1Cc1ccc(N/C=C2\C(=O)NC(=O)c3ccc(Br)cc32)cc1` (stereo in doubt) [Example 39], for which the melting point lay within 129 to 130 °C. Moreover, in the data set on LoVo, the IC50 came to 9.4 µM. Also, the IC50 with HCT-116 is 7.5 µM. The IC50 with MCF-7 is 6.3 µM. The IC50 at cyclin B/CDK1 enzyme is more than 50 µM. Also, the IC50 at cyclin E/CDK2 enzyme was more than 50 µM. Moreover, the IC50 with BT474 was found to be 7.9 µM. The half-maximal inhibitory concentration (IC50) at cyclin D1/cdk 4 enzyme was determined as 1.1 µM. Further, the IC50 with SK-UT-1B came out at 10 µM.

In turn, `COc1ccc(N/C=C2\C(=O)NC(=O)c3ccccc32)cc1` [Example 1, (4Z)-4-{[(4-Methoxyphenyl)amino]methylene}isoquinoline-1,3(2H,4H)-dione] had a melting point of 150 to 151 °C. Also, the IC50 in the data set on LoVo stood at 30 µM. The IC50 in the data set with HCT-116 was found to be 29 µM. The IC50 in the data set on MCF-7 was determined as 19 µM. For the same compound, the IC50 on cyclin B/CDK1 enzyme is more than 36 µM. At cyclin E/CDK2 enzyme, the IC50 stood at 18.9 µM. The IC50 in the data set on BT474 came out at 43 µM. Besides, the IC50 at cyclin D1/cdk 4 enzyme was 38 µM. Besides, the IC50 in the data set with SK-UT-1B is more than 36 µM.

Regarding `CN1CCN(c2ccc(N/C=C3\C(=O)NCc4ccccc43)cc2)CC1` [Example 2, (4Z)-4-({[4-(4-Methyl-1-piperazinyl)phenyl]amino}methylene)-1,4-dihydro-3(2H)-isoquinolinone], the melting point is 186 to 187 °C (dec.). Further, the IC50 with LoVo worked out at 7.8 µM. The half-maximal inhibitory concentration (IC50) in the data set with HCT-116 was found to be 7.4 µM. The IC50 in the data set on MCF-7 was found to be 6.7 µM. Moreover, the IC50 on cyclin B/CDK1 enzyme is more than 29 µM. In addition, the IC50 at cyclin E/CDK2 enzyme was more than 29 µM. The IC50 in the data set on BT474 came to 21.5 µM. The IC50 at cyclin D1/cdk 4 enzyme worked out at 12.1 µM. In addition, the IC50 in the data set on SK-UT-1B amounted to 4.3 µM.

In turn, `O=C1NC(=O)c2ccccc2/C1=C/Nc1ccc(CCN2CCCC2)cc1` [Example 5, (4Z)-4-({[4-(2-Pyrrolidin-1-ylethyl)phenyl]amino}methylene)isoquinoline-1,3(2H,4H)-dione] came in with a melting point of 224 to 225 °C. The IC50 in the data set on HCT-116 came to 10.8 µM. Further, the IC50 with MCF-7 amounted to 8 µM. Besides, at cyclin B/CDK1 enzyme, the IC50 is more than 28 µM. At cyclin E/CDK2 enzyme, the IC50 was more than 28 µM. The IC50 on cyclin D1/cdk 4 enzyme turned out to be 10.2 µM. The compound further came in with an IC50 with SK-UT-1B of 10.2 µM.

As to `O=C1NC(=O)c2ccccc2/C1=C/Nc1ccc2ncccc2c1` [Example 8, (4Z)-4-[(Quinolin-6-ylamino)methylene]isoquinoline-1,3(2H,4H)-dione], the melting point fell in the range of 277 to 278 °C. In addition, the IC50 with LoVo was more than 50 µM. Also, the IC50 in the data set with HCT-116 was more than 50 µM. The IC50 in the data set with MCF-7 is more than 50 µM. In addition, at cyclin B/CDK1 enzyme, the IC50 is more than 32 µM. Moreover, on cyclin E/CDK2 enzyme, the IC50 is more than 32 µM. For the same compound, the IC50 with BT474 was more than 50 µM. The IC50 at cyclin D1/cdk 4 enzyme was more than 50 µM. Inhibition in the data set on SK-UT-1B was half-maximal at 8.9 µM (IC50).

As for `O=C1NC(=O)c2ccccc2/C1=C\c1ccc(O)cc1` [Example 11, (4E)-4-(4-hydroxybenzylidene)isoquinoline-1,3(2H,4H)-dione], the melting point lay in the range of 242 to 243 °C. In addition, in the data set on LoVo, the IC50 came out at 6.8 µM. Also, the IC50 in the data set with HCT-116 came to 2.3 µM. Also, the 50% inhibitory concentration (IC50) in the data set with MCF-7 is 18 µM. In addition, at cyclin B/CDK1 enzyme, the IC50 is more than 37 µM. In addition, the IC50 at cyclin E/CDK2 enzyme is more than 37 µM. In the data set on BT474, the IC50 is more than 50 µM. In addition, the IC50 on cyclin D1/cdk 4 enzyme is more than 50 µM. Moreover, in the data set on SK-UT-1B, the IC50 was more than 36 µM.

Compound `O=C1NC(=O)c2ccccc2/C1=C/Nc1ccc(CN2CCCCC2)cc1` [Example 13, (4Z)-4-({[4-(Piperidin-1-ylmethyl)phenyl]amino}methylene)isoquinoline-1,3(2H,4H)-dione] showed a melting point of 185 to 186 °C. Besides, the IC50 with LoVo came to 15 µM. In addition, in the data set on HCT-116, the IC50 worked out at 8.6 µM. Further, the IC50 in the data set with MCF-7 was found to be 7.3 µM. The IC50 on cyclin B/CDK1 enzyme was more than 28 µM. In the data set on BT474, the IC50 was 27 µM. For the same compound, the IC50 on cyclin D1/cdk 4 enzyme came out at 7.9 µM. Besides, in the data set on SK-UT-1B, the IC50 was 11.3 µM.

With `O=C1NC(=O)c2ccccc2/C1=C/Nc1ccc(CN2CCC(O)CC2)cc1` [Example 23, (4Z)-4-[({4-[(4-Hydroxypiperidin-1-yl)methyl]phenyl}amino)methylene]isoquinolin-1,3(2H,4H)-dione], the melting point was 224 to 225 °C. Moreover, in the data set with HCT-116, the IC50 stood at 10.5 µM. Also, in the data set on MCF-7, the IC50 is 8.7 µM. Moreover, the IC50 on cyclin B/CDK1 enzyme was more than 26 µM. The IC50 on cyclin E/CDK2 enzyme came to 26 µM. Further, at cyclin D1/cdk 4 enzyme, the IC50 turned out to be 5.15 µM. For the same compound, the IC50 in the data set with SK-UT-1B came to 16.3 µM.

Consider `O=C1NC(=O)c2ccccc2/C1=C/Nc1ccc(CN2CCCCCC2)cc1` [Example 26, (4Z)-4-({[4-(Azepan-1-ylmethyl)phenyl]amino}methylene)isoquinoline-1,3(2H,4H)-dione], for which the melting point fell in the range of 198 to 200 °C. The IC50 with HCT-116 worked out at 7.3 µM. The IC50 with MCF-7 stood at 8 µM. Besides, on cyclin B/CDK1 enzyme, the IC50 was more than 27 µM. The IC50 on cyclin E/CDK2 enzyme was more than 27 µM. On cyclin D1/cdk 4 enzyme, the IC50 came out at 4.3 µM. The midpoint of inhibition in the data set with SK-UT-1B, the IC50, lay at 6.1 µM.

`CN(C(=O)CN1CCCCC1)c1ccc(N/C=C2\C(=O)NC(=O)c3ccccc32)cc1` [Example 29, N-(4-{[(Z)-(1,3-Dioxo-2,3-dihydroisoquinolin-4(1H)-ylidene)methyl]amino}phenyl)-1,3(2H,4H)-dione N-Methyl-2-piperidin-1-ylacetamide] had a melting point of 223 to 224 °C. Also, the IC50 in the data set on LoVo is 19 µM. Also, the IC50 in the data set on HCT-116 is 21 µM. Moreover, in the data set on MCF-7, the IC50 was found to be 12 µM. Also, the IC50 at cyclin B/CDK1 enzyme is more than 23 µM. In addition, the IC50 on cyclin E/CDK2 enzyme is more than 23 µM. Besides, the IC50 with BT474 amounted to 21 µM. The IC50 at cyclin D1/cdk 4 enzyme is 15 µM. Besides, in the data set on SK-UT-1B, half-maximal inhibition (IC50) required 17 µM.

With `O=C1NC(=O)c2ccc(Br)cc2/C1=C/NCc1ccncc1` [Example 31, (4Z)-6-Bromo-4-{[(pyridin-4-ylmethyl)amino]methylene}isoquinoline-1,3(2H,4H)-dione], the melting point fell in the range of 258 to 259 °C. Besides, in the data set on LoVo, the IC50 is more than 50 µM. For the same compound, the IC50 in the data set on HCT-116 amounted to 31 µM. Besides, the IC50 with MCF-7 is more than 50 µM. Further, the IC50 at cyclin B/CDK1 enzyme is more than 50 µM. Moreover, the IC50 on cyclin E/CDK2 enzyme was 2.4 µM. Moreover, the IC50 in the data set with BT474 worked out at 41 µM. Moreover, the IC50 at cyclin D1/cdk 4 enzyme was more than 50 µM. In addition, the IC50 in the data set on SK-UT-1B was more than 50 µM.

The compound `COC[C@H]1CCCN1Cc1ccc(N/C=C2\C(=O)NC(=O)c3ccc(Br)cc32)cc1` [Example 38] yielded a melting point of 129 to 130 °C. The IC50 in the data set on LoVo turned out to be 7.9 µM. Further, the IC50 in the data set on HCT-116 was found to be 7.3 µM. For the same compound, the IC50 with MCF-7 came out at 3.7 µM. Further, on cyclin B/CDK1 enzyme, the IC50 was more than 50 µM. Also, on cyclin E/CDK2 enzyme, the IC50 is more than 50 µM. The IC50 with BT474 was determined as 2.8 µM. For the same compound, the IC50 on cyclin D1/cdk 4 enzyme is 1.1 µM. In addition, in the data set with SK-UT-1B, the IC50 is 11 µM.
